In patent US11951108B2, “Combination therapy for treating cancer” (Epizyme, Inc., priority 2016, dated 2024):
Read-outs that look alike come from different tables or passages of the source.

Assays:
TOV112D = assay: In vitro combination study, ovarian cancer cell line TOV112D; conditions: 4+3 model
A2780 = assay: In vitro combination study, ovarian cancer cell line A2780
RMUGS* = assay: In vitro combination study, ovarian cancer cell line RMUGS; conditions: 7+3 model
KURAMOCHI = assay: In vitro combination study, ovarian cancer cell line KURAMOCHI; conditions: KURAMOCHI; 4+3 model
COV644* = assay: In vitro combination study, ovarian cancer cell line COV644; conditions: COV644*; 7+3 model
OVISE = assay: In vitro combination study, ovarian cancer cell line OVISE; conditions: OVISE; 4+3 model
CAOV-3 = assay: In vitro combination study, ovarian cancer cell line CAOV-3; format: cell-based; conditions: 4+3 model
SKOV3 = assay: In vitro combination study, ovarian cancer cell line SKOV3; conditions: 4+3 model
SNU840 = assay: In vitro combination study, ovarian cancer cell line SNU840; conditions: SNU840; 4+3 model
CAMA-1 = assay: In vitro combination study, breast cancer cell line CAMA-1; format: cell-based; conditions: ER/PR +/−, HER2 +, 7 day pre-treatment + 6 day co-treatment
HCC1419 = assay: In vitro combination study, breast cancer cell line HCC1419; conditions: ER/PR −/−, HER2 +, 7 day pre-treatment + 6 day co-treatment
ES-2 = assay: In vitro combination study, ovarian cancer cell line ES-2; conditions: 4+3 model
SUM52PE = assay: In vitro combination study, breast cancer cell line SUM52PE; conditions: ER/PR −/−, HER2 −, 7 day pre-treatment + 6 day co-treatment
JH)S-4 = assay: In vitro combination study, ovarian cancer cell line JH)S-4; conditions: 4+3 model
SUM159PT = assay: In vitro combination study, breast cancer cell line SUM159PT; conditions: ER/PR −/−, HER2 −, 7 day pre-treatment + 6 day co-treatment
OVMANA = assay: In vitro combination study, ovarian cancer cell line OVMANA; conditions: OVMANA; 4+3 model
COV362 = assay: In vitro combination study, ovarian cancer cell line COV362; conditions: COV362; 4+3 model
OVSAHO = assay: In vitro combination study, ovarian cancer cell line OVSAHO; conditions: 4+3 model
TOV21G = assay: In vitro combination study, ovarian cancer cell line TOV21G; format: cell-based; conditions: 4+3 model
OV-90 = assay: In vitro combination study, ovarian cancer cell line OV-90; conditions: OV-90; 4+3 model
BT474 = assay: In vitro combination study, breast cancer cell line BT474; conditions: ER/PR +/+, HER2 +, 7 day pre-treatment + 6 day co-treatment
DU4475 = assay: In vitro combination study, breast cancer cell line DU4475; conditions: ER/PR −/−, HER2 −, 7 day pre-treatment + 6 day co-treatment

## CC1(C)CCC(CN2CCN(c3ccc(C(=O)NS(=O)(=O)c4ccc(NCC5CCOCC5)c([N+](=O)[O-])c4)c(Oc4cnc5[nH]ccc5c4)c3)CC2)=C(c2ccc(Cl)cc2)C1 [ABT199]
TOV112D
  Synergy or antagonism of second agent with tazemetostat (IC50 shift of second agent): C (Synergy > 2× IC50 shift)
A2780; A2780, 4+3 model
  Synergy or antagonism of second agent with tazemetostat (IC50 shift of second agent): C (Synergy > 2× IC50 shift)

## COc1cc2c(Oc3ccc4[nH]c(C)cc4c3F)ncnc2cc1OCCCN1CCCC1 [AZD2171]
COV504; COV504, 4+3 model
  Synergy or antagonism of second agent with tazemetostat (IC50 shift of second agent): B (Synergy > 4× IC50 shift)
RMUGS*
  Synergy or antagonism of second agent with tazemetostat (IC50 shift of second agent): C (Synergy > 2× IC50 shift)
KURAMOCHI
  Synergy or antagonism of second agent with tazemetostat (IC50 shift of second agent): C (Synergy > 2× IC50 shift)
A2780; A2780, 4+3 model
  Synergy or antagonism of second agent with tazemetostat (IC50 shift of second agent): C (Synergy > 2× IC50 shift)
COV644*
  Synergy or antagonism of second agent with tazemetostat (IC50 shift of second agent): C (Synergy > 2× IC50 shift)

## Cc1nc(NC(=O)N2CCC[C@H]2C(N)=O)sc1-c1ccnc(C(C)(C)C(F)(F)F)c1 [BYL719]
OVISE
  Synergy or antagonism of second agent with tazemetostat (IC50 shift of second agent): C (Synergy > 2× IC50 shift)
CAOV-3
  Synergy or antagonism of second agent with tazemetostat (IC50 shift of second agent): C (Synergy > 2× IC50 shift)
SKOV3
  Synergy or antagonism of second agent with tazemetostat (IC50 shift of second agent): C (Synergy > 2× IC50 shift)
TOV112D
  Synergy or antagonism of second agent with tazemetostat (IC50 shift of second agent): C (Synergy > 2× IC50 shift)
COV504; COV504, 4+3 model
  Synergy or antagonism of second agent with tazemetostat (IC50 shift of second agent): B (Synergy > 4× IC50 shift)
SNU840
  Synergy or antagonism of second agent with tazemetostat (IC50 shift of second agent): B (Synergy > 4× IC50 shift)
A2780; A2780, 4+3 model
  Synergy or antagonism of second agent with tazemetostat (IC50 shift of second agent): B (Synergy > 4× IC50 shift)
COV644*
  Synergy or antagonism of second agent with tazemetostat (IC50 shift of second agent): C (Synergy > 2× IC50 shift)

## N.N.O=C([O-])C1(C(=O)[O-])CCC1.[Pt+2] [Carboplatin]
A2780; A2780, 4+3 model
  Synergy or antagonism of second agent with tazemetostat (IC50 shift of second agent): B (Synergy > 4× IC50 shift)

## CCc1cnn2c(NCc3ccc[n+]([O-])c3)cc(N3CCCC[C@H]3CCO)nc12 [Dinaciclib]
CAMA-1
  Synergy or antagonism of second agent with tazemetostat (IC50 shift of second agent): A (Antagonism)

## Nc1ccn([C@@H]2O[C@H](CO)[C@@H](O)C2(F)F)c(=O)n1 [Gemcitabine]
HCC1419
  Synergy or antagonism of second agent with tazemetostat (IC50 shift of second agent): C (Synergy > 2× IC50 shift)
SKOV3
  Synergy or antagonism of second agent with tazemetostat (IC50 shift of second agent): C (Synergy > 2× IC50 shift)
COV504; COV504, 4+3 model
  Synergy or antagonism of second agent with tazemetostat (IC50 shift of second agent): C (Synergy > 2× IC50 shift)
RMUGS*
  Synergy or antagonism of second agent with tazemetostat (IC50 shift of second agent): B (Synergy > 4× IC50 shift)
A2780; A2780, 4+3 model
  Synergy or antagonism of second agent with tazemetostat (IC50 shift of second agent): B (Synergy > 4× IC50 shift)

## Cc1ccc(NC(=O)c2ccc(CN3CCN(C)CC3)cc2)cc1Nc1nccc(-c2cccnc2)n1 [Imatinib]
ES-2
  Synergy or antagonism of second agent with tazemetostat (IC50 shift of second agent): A (Antagonism)

## NC(=O)c1ccc(I)c([N+](=O)[O-])c1 [Iniparib (BSI 201), Iniparib]
HCC1419
  Synergy or antagonism of second agent with tazemetostat (IC50 shift of second agent): C (Synergy > 2× IC50 shift)
CAMA-1
  Synergy or antagonism of second agent with tazemetostat (IC50 shift of second agent): C (Synergy > 2× IC50 shift)
SUM52PE
  Synergy or antagonism of second agent with tazemetostat (IC50 shift of second agent): C (Synergy > 2× IC50 shift)

## C=CCn1c(=O)c2cnc(Nc3ccc(N4CCN(C)CC4)cc3)nc2n1-c1cccc(C(C)(C)O)n1 [MK1775]
CAOV-3
  Synergy or antagonism of second agent with tazemetostat (IC50 shift of second agent): C (Synergy > 2× IC50 shift)
SKOV3
  Synergy or antagonism of second agent with tazemetostat (IC50 shift of second agent): C (Synergy > 2× IC50 shift)
TOV112D
  Synergy or antagonism of second agent with tazemetostat (IC50 shift of second agent): C (Synergy > 2× IC50 shift)
COV504; COV504, 4+3 model
  Synergy or antagonism of second agent with tazemetostat (IC50 shift of second agent): C (Synergy > 2× IC50 shift)
RMUGS*
  Synergy or antagonism of second agent with tazemetostat (IC50 shift of second agent): B (Synergy > 4× IC50 shift)
JH)S-4
  Synergy or antagonism of second agent with tazemetostat (IC50 shift of second agent): C (Synergy > 2× IC50 shift)
KURAMOCHI
  Synergy or antagonism of second agent with tazemetostat (IC50 shift of second agent): C (Synergy > 2× IC50 shift)
A2780; A2780, 4+3 model
  Synergy or antagonism of second agent with tazemetostat (IC50 shift of second agent): B (Synergy > 4× IC50 shift)
COV644*
  Synergy or antagonism of second agent with tazemetostat (IC50 shift of second agent): B (Synergy > 4× IC50 shift)

## O=C(c1cc(Cc2n[nH]c(=O)c3ccccc23)ccc1F)N1CCN(C(=O)C2CC2)CC1 [Olaparib]
SUM159PT
  Synergy or antagonism of second agent with tazemetostat (IC50 shift of second agent): C (Synergy > 2× IC50 shift)
A2780; A2780, 4+3 model
  Synergy or antagonism of second agent with tazemetostat (IC50 shift of second agent): B (Synergy > 4× IC50 shift)

## Cc1[nH]c2ccccc2c1CCNCc1ccc(/C=C/C(=O)NO)cc1 [Panobinostat]
OVISE
  Synergy or antagonism of second agent with tazemetostat (IC50 shift of second agent): C (Synergy > 2× IC50 shift)
CAOV-3
  Synergy or antagonism of second agent with tazemetostat (IC50 shift of second agent): C (Synergy > 2× IC50 shift)
OVMANA
  Synergy or antagonism of second agent with tazemetostat (IC50 shift of second agent): C (Synergy > 2× IC50 shift)
SKOV3
  Synergy or antagonism of second agent with tazemetostat (IC50 shift of second agent): B (Synergy > 4× IC50 shift)
TOV112D
  Synergy or antagonism of second agent with tazemetostat (IC50 shift of second agent): C (Synergy > 2× IC50 shift)
COV504; COV504, 4+3 model
  Synergy or antagonism of second agent with tazemetostat (IC50 shift of second agent): B (Synergy > 4× IC50 shift)
COV362
  Synergy or antagonism of second agent with tazemetostat (IC50 shift of second agent): C (Synergy > 2× IC50 shift)
OVSAHO
  Synergy or antagonism of second agent with tazemetostat (IC50 shift of second agent): C (Synergy > 2× IC50 shift)
SNU840
  Synergy or antagonism of second agent with tazemetostat (IC50 shift of second agent): C (Synergy > 2× IC50 shift)
JH)S-4
  Synergy or antagonism of second agent with tazemetostat (IC50 shift of second agent): C (Synergy > 2× IC50 shift)
KURAMOCHI
  Synergy or antagonism of second agent with tazemetostat (IC50 shift of second agent): C (Synergy > 2× IC50 shift)
TOV21G
  Synergy or antagonism of second agent with tazemetostat (IC50 shift of second agent): C (Synergy > 2× IC50 shift)
A2780; A2780, 4+3 model
  Synergy or antagonism of second agent with tazemetostat (IC50 shift of second agent): B (Synergy > 4× IC50 shift)
COV644*
  Synergy or antagonism of second agent with tazemetostat (IC50 shift of second agent): C (Synergy > 2× IC50 shift)
OV-90
  Synergy or antagonism of second agent with tazemetostat (IC50 shift of second agent): C (Synergy > 2× IC50 shift)

## CS(=O)(=O)N1CCN(Cc2cc3nc(-c4cccc5[nH]ncc45)nc(N4CCOCC4)c3s2)CC1 [Pictilisib]
CAOV-3
  Synergy or antagonism of second agent with tazemetostat (IC50 shift of second agent): C (Synergy > 2× IC50 shift)
OVMANA
  Synergy or antagonism of second agent with tazemetostat (IC50 shift of second agent): C (Synergy > 2× IC50 shift)
SNU840
  Synergy or antagonism of second agent with tazemetostat (IC50 shift of second agent): C (Synergy > 2× IC50 shift)
A2780; A2780, 4+3 model
  Synergy or antagonism of second agent with tazemetostat (IC50 shift of second agent): C (Synergy > 2× IC50 shift)
COV644*
  Synergy or antagonism of second agent with tazemetostat (IC50 shift of second agent): C (Synergy > 2× IC50 shift)

## C/C=C1\NC(=O)[C@H]2CSSCC/C=C/[C@H](CC(=O)N[C@H](C(C)C)C(=O)N2)OC(=O)[C@H](C(C)C)NC1=O [Romidepsin]
COV504
  Synergy or antagonism of second agent with tazemetostat (IC50 shift of second agent): C (key: B: Synergy > 4× IC50 shift; Synergy > 2× IC50 shift; No Effect; Antagonism; X: Not Tested)
COV362
  Synergy or antagonism of second agent with tazemetostat (IC50 shift of second agent): C (Synergy > 2× IC50 shift)

## Cc1cc(Nc2ccc(NC(=O)c3ccc(Nc4ccnc5ccccc45)cc3)cc2)nc(N)n1 [SGI1027]
CAMA-1
  Synergy or antagonism of second agent with tazemetostat (IC50 shift of second agent): C (Synergy > 2× IC50 shift)
BT474
  Synergy or antagonism of second agent with tazemetostat (IC50 shift of second agent): B (Synergy > 4× IC50 shift)
DU4475
  Synergy or antagonism of second agent with tazemetostat (IC50 shift of second agent): A (Antagonism)

## CCCS(=O)(=O)Nc1ccc(F)c(C(=O)c2c[nH]c3ncc(-c4ccc(Cl)cc4)cc23)c1F [Vemurafenib]
ES-2
  Synergy or antagonism of second agent with tazemetostat (IC50 shift of second agent): C (Synergy > 2× IC50 shift)

## AZD5363
A2780
  Synergy or antagonism of second agent with tazemetostat (IC50 shift of second agent): B (key: B: Synergy > 4× IC50 shift; Synergy > 2× IC50 shift; No Effect; Antagonism; X: Not Tested)
